Here are results for two compounds from US12655462B2, “PLK1 target phosphorylation status and treatment of cancer with PLK1 inhibitors” (Cardiff Oncology, Inc., priority 2018, dated 2026).

Where two headings read alike, the source gives them in different places.

The target in data set [1] is T1, PLK1 phosphorylation of TCTP in MV4-11 and HL-60 (Homo sapiens, UniProt P53350).
T1 construct: endogenous in cells; host or cells: MV4-11 and HL-60 AML cell lines
Put plainly: pTCTP in AML cell lines MV4-11 and HL-60, western blot (FIG. 2C). The data set is classed as cell-based. The settings on record: MV4-11 and HL-60, 15 minutes; onvansertib 0.1 or 0.5 μM, cytarabine 10 or 100 nM, decitabine 0.2 or 1 μM. As for the experimental part: (§1) Protein extracts were prepared from PBMC and cell lines using M-PER buffer (ThermoFisher) with 150 mM NaCl and 1× protease and phosphatase inhibitors cocktails (ThermoFisher). Protein concentration was measured with the Pierce BCA protein assay kit (ThermoFisher).
Western blots were performed as Simple Western™ assays using the Wes system (ProteinSimple), a combination of capillary electrophoresis and immunodetection techniques, following the manufacturer's protocols. Briefly, extracts with equal protein concentration were mixed with 0.1× sample buffer and 5× fluorescent master mix. Denatured protein samples, biotinylated ladder (ProteinSimple), primary antibodies, horseradish peroxidase (HRP)-conjugated secondary antibody (ProteinSimple), chemiluminescence substrate and wash buffer were dispensed into respective wells of the assay plate and placed in Wes equipment. Primary antibodies were purchased from Cell Signaling Technology: phospho-TCTP-Ser46 (#5251) and TCTP (#5128), and used at a concentration of 1:50. Quantitative analysis was performed using Compass software (ProteinSimple). […]
AML cell lines MV4-11 and HL-60 were treated for 15 minutes with onvansertib (PCM-075) (0.1 or 0.5 μM), cytarabine (10 or 100 nM) or decitabine (0.2 or 1 μM). Proteins were then extracted from the cells and assessed for pTCTP.
(A western blot detects proteins with antibodies after separation by electrophoresis.)

Data set [2] addresses T2, PLK1 phosphorylation of TCTP (Homo sapiens, UniProt P53350). Put plainly: Inhibition of pTCTP in vitro, western blot (FIG. 2B).
In data set [3] the test system is acute myeloid leukemia (AML). As to the kind of experiment: Clinical response of AML patients, trial NCT03303339 (leukemic cells in blood and bone marrow). The data set is classed as in vivo, human. An excerpt:
Patient data provided herein is from patients in clinical trial NCT03303339, Onvansertib in Combination With Either Low-dose Cytarabine (LDAC) or Decitabine in Adult Patients With Acute Myeloid Leukemia (AML) (ClinicalTrials.gov).
Responders were defined as patients showing a decrease in circulating and bone marrow blasts during treatment.

The conditions of data set [4]: cited from earlier work; for half-life: oral administration.
Data set [5] deals with cell lines, both from solid as well as hematologic tumors. As to conditions: large number of cell lines, solid and hematologic tumors; cited from earlier work.
The next data set deals with cancer cell lines. As to conditions: cited from earlier work.
A further data set deals with PLK1 (Homo sapiens, UniProt P53350). The settings on record: versus previous PLK inhibitors; cited from earlier work.
Sequence of PLK1 (P53350 whole entry): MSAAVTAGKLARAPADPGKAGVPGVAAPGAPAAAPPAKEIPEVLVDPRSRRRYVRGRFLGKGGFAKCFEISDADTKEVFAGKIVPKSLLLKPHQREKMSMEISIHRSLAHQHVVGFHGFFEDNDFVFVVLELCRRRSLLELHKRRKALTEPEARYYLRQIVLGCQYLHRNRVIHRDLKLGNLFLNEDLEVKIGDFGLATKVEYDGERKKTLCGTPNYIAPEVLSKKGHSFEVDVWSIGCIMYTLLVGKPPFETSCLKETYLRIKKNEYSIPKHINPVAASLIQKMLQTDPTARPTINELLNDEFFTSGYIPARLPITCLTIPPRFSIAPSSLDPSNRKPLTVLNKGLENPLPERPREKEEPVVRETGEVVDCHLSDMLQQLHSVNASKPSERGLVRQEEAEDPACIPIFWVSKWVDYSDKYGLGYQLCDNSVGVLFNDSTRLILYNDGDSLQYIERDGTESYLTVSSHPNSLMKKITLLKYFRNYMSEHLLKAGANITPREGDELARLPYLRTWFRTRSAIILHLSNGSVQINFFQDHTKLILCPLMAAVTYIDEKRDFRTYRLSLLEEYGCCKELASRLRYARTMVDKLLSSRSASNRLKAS
In the next data set the test system is xenograft tumor. As to conditions: mice, oral administration, well tolerated doses; cited from earlier work.
Data set [6] relates to HT29 human colon adenocarcinoma xenografts. The settings on record: combination with irinotecan, compared to each agent alone; cited from earlier work.
Data set [7] deals with disseminated model of AML. The settings on record: combination therapy with cytarabine; cited from earlier work.
Data set [8] relates to advanced/metastatic solid tumors. The settings on record: adult subjects; cited from earlier work.
Data set [9] concerns the target T2, PLK1 phosphorylation of TCTP. As to the kind of experiment: pTCTP (Ser46) in patient blood PBMC before and 3 hours after onvansertib. The data set is classed as in vivo. On the set-up: Protein extracts were prepared from PBMC and cell lines using M-PER buffer; from tissue; host or cells: peripheral blood mononuclear cells from AML patients' blood. The settings on record: for decrease in pTCTP in patient blood: three patients, as early as three hours. As for the experimental part: Determination of phosphorylation of serine 46 of TCTP in blood was as follows. Peripheral blood mononuclear cells (PBMC) were isolated from a Cellsave blood tube (Menarini Silicon Biosystems) using Leucosep centrifuge tubes (VWR) and Histopaque-1077 (Sigma) according to the manufacturer's recommendations.
as §1
Western blots were performed as Simple Western™ assays using the Wes system (ProteinSimple), a combination of capillary electrophoresis and immunodetection techniques, following the manufacturer's protocols. Briefly, extracts with equal protein concentration were mixed with 0.1× sample buffer and 5× fluorescent master mix. Denatured protein samples, biotinylated ladder (ProteinSimple), primary antibodies, horseradish peroxidase (HRP)-conjugated secondary antibody (ProteinSimple), chemiluminescence substrate and wash buffer were dispensed into respective wells of the assay plate and placed in Wes equipment. Primary antibodies were purchased from Cell Signaling Technology: phospho-TCTP-Ser46 (#5251) and TCTP (#5128), and used at a concentration of 1:50. Quantitative analysis was performed using Compass software (ProteinSimple). Signal intensity (area) of pTCTP was normalized to the peak area of TCTP and reported as % pTCTP.
PLK1 inhibition in patients was assessed in blood taken 3-hours following administration of onvansertib at peak concentration (Cmax).
Blood samples were collected before, and 3 hours after, onvansertib treatment from patients enrolled in the trial described in Example 1. The onvansertib treatments were 12, 18, 27, or 40 mg/m^2. pTCTP and TCTP were assessed by Western-Blot and % pTCTP (pTCTP/TCTP) was quantified.
In these studies, biomarker positivity was defined as ≥50% decrease in % pTCTP from T=0 to T=3h.

The mark [10] stands for this setting: combination with LDAC or decitabine.

T2 sequence (P53350 whole entry): as above
T1 sequence (P53350 whole entry): as above

Turning to `Nc1ccn([C@@H]2O[C@H](CO)[C@@H](O)[C@@H]2O)c(=O)n1` [cytarabine], in data set [1], the “inhibition of pTCTP” value is given as “but not cytarabine or decitabine, inhibited pTCTP”.

Take `CN1CCN(c2ccc(OC(F)(F)F)c(Nc3ncc4c(n3)-c3c(c(C(N)=O)nn3CCO)CC4)c2)CC1` [onvansertib, 1-(2-hydroxyethyl)-8-{[5-(4-methylpiperazin-1-yl)-2-(trifluoromethoxy)phenyl]amino}-4,5-dihydro-1H-pyrazolo[4,3-h] quinazoline-3-carboxamide]: the “inhibition of pTCTP in vitro” value in data set [2] is “inhibits pTCTP in vitro, in a dose-dependent manner”. Also, the “inhibition of pTCTP” value in data set [1] is “inhibited pTCTP”. Moreover, the “biomarker positive patients with a decrease in BM blasts≥50%” value in [3] (setting [10]) is recorded as “six out of the nine”. Further, the “patients with complete response [CR] or CR with incomplete hematological recovery [CRi]” value in data set [3] (setting [10]) is “Four”. Also, the “patients exhibiting a response (decrease in leukemic cells in blood and bone marrow)” value in [3] (in combination with low-dose cytarabine (LDAC) or decitabine) is listed as “Three of 6”. The “leukemic cells in bone marrow, decrease” value is given as 96% to 55% in data set [3] (patient 07-009, combination with decitabine) and 55% to 15% in data set [3] (patient 07-011, combination with decitabine). For the same compound, the half-life (in general, the time in which the quantity being followed falls by half) in data set [4] is “about 24 hours”; in data set [4] (listed as Onvansertib) it was around 24 h. Also, the oral bioavailability result in data set [4] (rodent and nonrodent species) was “good oral bioavailability”. Moreover, in data set [5], the “potency in proliferation assays” value is given as “low nanomolar activity”. Further, in the data set on cancer cell lines, the “mitotic cell-cycle arrest followed by apoptosis” value is “potently causes a mitotic cell-cycle arrest followed by apoptosis”. Further, at PLK1, the “selectivity for PLK1” value is on record as “high selectivity for PLK1 only”. In addition, the xenograft tumor growth entry in the data set with xenograft tumor is on record as “inhibits xenograft tumor growth”. Besides, the tumor regression result in [6] was “enhanced tumor regression”. Besides, the survival of animals result in data set [7] is on record as “prolonged survival”. Besides, in [8], the “evaluable patients with stable disease” value is 5 of 16. Also, the “recommended phase 2 dose” value in data set [8] was 24 mg/m^2. The “decrease of pTCTP in cells of non-responders” value in data set [9] (5 non-responders, higher dose 18 mg/m^2) is listed as “did not show a decrease of pTCTP”. For the same compound, in data set [9] (the one biomarker negative patient with objective response), the “decrease in pTCTP” value amounted to 40%. The “decrease in pTCTP in patient blood” value in data set [9] (onvansertib and LDAC) is “only the responder showed a decrease in pTCTP”; in [9] (onvansertib and decitabine), “only the two responders showed a decrease in pTCTP”.
